Like-named read-outs stand apart in the source and are kept apart here. Positions of bridges follow the written chain, without caps; N, C: chain ends. Residues, ends and D or L forms follow the SMILES beside them. No end group written: not given here.
Assays:
[1] = target: recombinant LanCL1 (rLanCL1) (Homo sapiens, UniProt O43813); assay: biochemical; format: binding
Description: Dry pellets of LANCL1 previously photolabelled with photoprobes in the presence of different peptides or PBS/DMSO vehicle were resuspended in 30 μL SDS loading buffer (Bio Rad's XT Sample Buffer containing 2.5% v/v 2-mercaptoethanol) and heated (60° C., 30 min). Proteins were resolved using SDS-PAGE (4-15% Criterion™ TGX Stain-Free™ Protein Gel, Bio Rad) and analyzed by in-gel fluorescence scanning using a ChemiDoc™ MP Imaging System (Bio Rad) with a green LED light as an excitation source and a BP600/20 nm emission filter. After in-gel fluorescence scanning, gels were stained with Coomassie blue to ensure the same amount of protein sample was loaded in each lane and imaged with the ChemiDoc™ MP Imaging System. Photoincorporation of each photoprobe in LANCL1 was quantitatively assessed by measuring the fluorescent intensity of the corresponding gel band using Image lab software (Bio Rad) and normalizing this value against the intensity value of LANCL1 gel band stained with Coomassie blue to control for loading differences.
(SEQ ID NO:22) from recombinant LanCL1 (rLanCL1).

[2] = test system: Chung rats; assay: In vivo model of neuropathic pain (Chung model, Example 4); parameters: species or system rat; conditions: oral, subcutaneous and/or intramuscular administration
Excerpt: This study was undertaken to assess the analgesic effect of the peptides described herein on neuropathic pain in vivo using a nerve constriction model in Chung rats. Briefly, adult male Sprague-Dawley rats, 8-9 weeks old, weighing 220-250 g at the time of surgery, were purchased from Charles River UK Ltd.
The animals were housed in groups of 4 in an air-conditioned room on a 12-hour light/dark cycle. Food and water were available ad libitum. They were allowed to acclimatise to the experimental environment for three days by leaving them on a raised metal mesh for at least 40 min. The baseline paw withdrawal threshold (PWT) was examined using a series of graduated von Frey hairs for 3 consecutive days before surgery and re-assessed on the 6th to 8th day after surgery and on the 12th to 14th day after surgery before drug dosing.
Each rat was anaesthetized with 5% isoflurane mixed with oxygen (2 L per min) followed by an intramuscular (i.m.) injection of ketamine 90 mg/kg plus xylazine 10 mg/kg. The back was shaved and sterilized with povidone-iodine. The animal was placed in a prone position and a para-medial incision was made on the skin covering the L4-6 level. The L5 spinal nerve was carefully isolated and tightly ligated with 6/0 silk suture. The wound was then closed in layers after a complete hemostasis. A single dose of antibiotics (Amoxipen, 15 mg/rat, i.p.) was routinely given for prevention of infection after surgery. The animals were placed in a temperature-controlled recovery chamber until fully awake before being returned to their home cages.
The vehicle (1% DMSO in PBS) or peptide was administrated intramuscularly (i.m.) into the leg of the side contralateral to the site of injury. Dosing was carried out by a second experimenter. […]
Each group had 8 animals. […] The lowest amount of force required to induce reliable responses (positive in 3 out of 5 trials) was recorded as the value of PWT.
The drug test was carried out on the 12th to 14th day after surgery. PWT were assessed before, 1, 2 and 4 hours following drug or vehicle administration. […]

[3] = test system: HKx31 (H3N2); format: in vivo, mice; parameters: key to PMN activity score / Viral titre activity score / BAL IL-6 activity score: 0: inactive; 1: less active than the peptide of SEQ ID NO:38; 2: comparable or more active than the peptide of SEQ ID NO:38; conditions: for IL-6 levels in the BAL fluid / viral titres: 10 mg/kg single dose
[4] = test system: A549 cells; assay: A549 proliferation + stress assay (restoration of viability of Taxol-treated cells, CellTiter-Glo); format: cell-based, human; conditions: for Estimated Activity in A549 proliferation + stress assay: 350 μM Taxol, 16 hours, peptide 1-100 μM; for restoration of A549 viability: Taxol-treated A549 cells
Description: An assay was developed that involves stressing cells with a dose of the chemotherapeutic agent, Taxol, that causes a 50% inhibition of cell viability when compared to untreated cells. Peptides were then added to the cell cultures at increasing concentrations to assess their ability to restore the viability of the Taxol-treated cells.
Briefly, A549 cells were cultured in opaque-walled multiwell plates with 50000 A549 cells/well in culture medium (DMEM medium ref 11960-044 Thermoscientific, +10% FBS ref 10270-106 Gibco, Thermoscientific, +1% Na pyruvate ref S8636-100 ML, Sigma, +1%, Glutamax ref35050061, Thermoscientific, +1% Penicillin-Streptomycin, ref 11074440001, Sigma) 100 μl per well for 96-well plates. Control wells containing medium without cells were used to obtain a value for background luminescence. Cells were incubated at 37° C. in 5% CO2 overnight.
100 μL of medium+DMSO+peptides or medium+Taxol+peptides (at the different concentrations) were added to each well and incubated for 16 hours at 37° C. 5% CO2.
Cell morphology, viability and confluency were assessed by phase contrast microscopy. The CellTiter-Glo® Luminescent Cell Viability Assay (G7571, Promega—a homogeneous method to determine the number of viable cells in culture based on quantitation of the ATP present) was then used to quantify the number of metabolically active cells, according to the manufacturer's instructions. 100 μl volume of CellTiter-Glo® Reagent was added to the 100 μL volume of cell culture medium present in each well, Contents were mixed for 2 minutes on an orbital shaker to induce cell lysis and after incubating the plates at room temperature for 10 minutes to stabilize luminescent signal luminescence was recorded with an integration time of 0.5 seconds using a CLARIOstar multi well luminometer (BMG Labtech)

Chain of recombinant LanCL1 (rLanCL1) (O43813 whole entry, species assumed): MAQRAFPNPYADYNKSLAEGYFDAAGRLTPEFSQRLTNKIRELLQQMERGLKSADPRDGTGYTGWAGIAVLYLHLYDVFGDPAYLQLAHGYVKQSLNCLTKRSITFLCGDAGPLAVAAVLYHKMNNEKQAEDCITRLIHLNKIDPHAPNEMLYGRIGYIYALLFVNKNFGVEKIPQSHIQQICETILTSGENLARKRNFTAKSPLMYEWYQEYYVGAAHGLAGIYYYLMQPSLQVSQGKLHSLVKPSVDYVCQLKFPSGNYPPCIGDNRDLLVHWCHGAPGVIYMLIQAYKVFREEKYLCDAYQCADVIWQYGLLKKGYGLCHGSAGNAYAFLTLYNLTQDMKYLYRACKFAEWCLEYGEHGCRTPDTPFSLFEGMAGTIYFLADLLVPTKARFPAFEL

CC(C)[C@@H]1NC(=O)[C@H](CO)NC(=O)[C@H](CCCNC(=N)N)NC(=O)[C@@H](N)CSSC[C@@H](C(=O)NCC(=O)O)NC(=O)[C@H](CO)NC(=O)CNC(=O)[C@H](CCC(=O)O)NC1=O [compound 3] (H-CRSVEGSCG-OH; disulfide 1-8; N-terminus and C-terminus assumed)
EC50 [1]: ~150 µM
neuropathic pain in the Chung model [2]: reduced neuropathic pain

9 (RSVEGS) [compound 9]
IL-6 levels in the BAL fluid [3]: as effective
viral titres ([3]; day 3): effective
BAL IL-6 activity score ([3]; mouse, in vivo, 10 mg/kg): 2
PMN activity score ([3]; mouse, in vivo, 10 mg/kg): 2
Viral titre activity score ([3]; mouse, in vivo, 10 mg/kg): 2
reducing the PMN infiltrate in BAL fluid, compared with the peptide of SEQ ID NO:38 ([3]; single 10 mg/kg dose): as effective
Estimated Activity in A549 proliferation + stress assay [4]: STRONG (clear dose-dependent restoration of cell viability from 1-5 μM upwards)
restoration of A549 viability [4]: restored the Taxol-induced loss of cell viability

QEQLERALNSS [compound 37]
EC50 [1]: 100 to 200 µM

CC(C)C[C@@H]1NC(=O)[C@H](C)NC(=O)[C@H](CCCNC(=N)N)NC(=O)[C@H](CCC(=O)O)NC(=O)[C@H](CC(C)C)NC(=O)[C@H](CCC(N)=O)NC(=O)[C@H](CCC(=O)O)NC(=O)[C@H](CCC(N)=O)NC(=O)[C@@H](N)CSSC[C@@H](C(=O)O)NC(=O)[C@H](CO)NC(=O)[C@H](CO)NC(=O)[C@H](CC(N)=O)NC1=O [compound 38] (H-CQEQLERALNSSC-OH; disulfide 1-13)
EC50 [1]: 50 to 100 µM

42 (KALPRS) [compound 42]
IL-6 levels in the BAL fluid [3]: as effective
viral titres ([3]; day 3): effective
BAL IL-6 activity score ([3]; mouse, in vivo, 10 mg/kg): 2
PMN activity score ([3]; mouse, in vivo, 10 mg/kg): 2
Viral titre activity score ([3]; mouse, in vivo, 10 mg/kg): 2
reducing the PMN infiltrate in BAL fluid, compared with the peptide of SEQ ID NO:38 ([3]; single 10 mg/kg dose): as effective
Estimated Activity in A549 proliferation + stress assay [4]: STRONG (clear dose-dependent restoration of cell viability from 1-5 μM upwards)
restoration of A549 viability [4]: partially restore A549 viability

CC[C@H](C)[C@H](NC(=O)[C@H](CCCNC(=N)N)NC(=O)[C@H](CC(C)C)NC(=O)[C@@H](N)Cc1ccc(O)cc1)C(=O)N[C@H](C(=O)N[C@@H](CCC(N)=O)C(=O)N[C@H]1CSSC[C@@H](C(=O)NCC(=O)N[C@@H](Cc2ccccc2)C(=O)O)NC(=O)[C@H](CO)NC(=O)CNC(=O)[C@H](CCC(=O)O)NC(=O)[C@H](C(C)C)NC(=O)[C@H](CO)NC(=O)[C@H](CCCNC(=N)N)NC1=O)C(C)C [compound 1] (H-YLRIVQCRSVEGSCGF-OH; disulfide 7-14)
EC50 [1]: 50 to 100 µM

60 (RALN) [compound 60]
BAL IL-6 activity score ([3]; mouse, in vivo, 10 mg/kg): 2
PMN activity score ([3]; mouse, in vivo, 10 mg/kg): 2
Viral titre activity score ([3]; mouse, in vivo, 10 mg/kg): 2
Estimated Activity in A549 proliferation + stress assay [4]: WEAK (some or variable restoration of cell viability at 50-100 μM)

59 (RALNS) [compound 59]
BAL IL-6 activity score ([3]; mouse, in vivo, 10 mg/kg): 2
PMN activity score ([3]; mouse, in vivo, 10 mg/kg): 2
Viral titre activity score ([3]; mouse, in vivo, 10 mg/kg): 2
Estimated Activity in A549 proliferation + stress assay [4]: WEAK-MODERATE

RALNSS [compound 39]
EC50 [1]: > 200 µM

10 (SCRSRPVESSC; disulfide 2-11) [compound 10]
Estimated Activity in A549 proliferation + stress assay [4]: STRONG (clear dose-dependent restoration of cell viability from 1-5 μM upwards)
restoration of A549 viability [4]: restore A549 viability
neuropathic pain in the Chung model [2]: reduced neuropathic pain

CC(C)C[C@@H]1NC(=O)[C@H](C)NC(=O)[C@H](CCCNC(=N)N)NC(=O)[C@@H](N)CSSC[C@@H](C(=O)O)NC(=O)[C@H](CO)NC(=O)[C@H](CO)NC(=O)[C@H](CC(N)=O)NC1=O [compound 40] (H-CRALNSSC-OH; disulfide 1-8)
EC50 [1]: 50 to 100 µM

CC[C@H](C)[C@@H]1NC(=O)[C@H](CCCNC(=N)N)NC(=O)[C@@H](N)CSSC[C@@H](C(=O)O)NC(=O)[C@H](CC(N)=O)NC(=O)[C@H](CC(N)=O)NC(=O)[C@H](CC(N)=O)NC(=O)[C@H](Cc2c[nH]cn2)NC(=O)[C@H]([C@@H](C)CC)NC1=O [compound 24] (H-CRIIHNNNC-OH; disulfide 1-9)
EC50 [1]: 100 to 200 µM

63 (ALNSS) [compound 63]
Viral titre activity score ([3]; single 10 mg/kg dose, day 3, relative to SEQ ID NO:38): 0
Estimated Activity in A549 proliferation + stress assay [4]: MODERATE (moderate dose-dependent restoration of cell viability at >25 μM)

CC(C)[C@@H]1NC(=O)[C@@H]2CCCN2C(=O)[C@H](CCCNC(=N)N)NC(=O)[C@H](CO)NC(=O)[C@H](CCCNC(=N)N)NC(=O)[C@@H](N)CSSC[C@@H](C(=O)N[C@@H](CO)C(=O)O)NC(=O)[C@H](CO)NC(=O)[C@H](CO)NC(=O)[C@H](CCC(=O)O)NC1=O [compound 14] (H-CRSRPVESSCS-OH; disulfide 1-10; N-terminus and C-terminus assumed)
EC50 [1]: ~100 µM
Estimated Activity in A549 proliferation + stress assay [4]: STRONG (clear dose-dependent restoration of cell viability from 1-5 μM upwards)

2 (CRSVEGSCGF; disulfide 1-8) [compound 2]
PMN activity score ([3]; mouse, in vivo, 10 mg/kg): 2
reducing the PMN infiltrate in BAL fluid, compared with the peptide of SEQ ID NO:38 ([3]; single 10 mg/kg dose): as effective
neuropathic pain in the Chung model [2]: reduced neuropathic pain

— US12492223B2, “Peptide compositions capable of binding lanthionine synthetase C-like protein (LanCl) and uses thereof” (priority 2021, dated 2025)
